Source: paper PMC5218480 (PLoS ONE, 2017)

System: MV-4-11 cells
Assay: Gene expression microarray analysis (Affymetrix PrimeView) and GSEA
Format: cell-based, human
Settings: gene VPS36, vacuolar protein sorting 36 homolog; Azacitidine 1 mM; LIST F

## Nc1ncn([C@@H]2O[C@H](CO)[C@@H](O)[C@H]2O)c(=O)n1 [azacitidine]
  RFU, VPS36 (ProbeSet 11739960_a_at): 118.04 RFU
